In this series the test system is TA1537. The experiment in a line: Ames test (Ames MPF microplate format) without metabolic activation, toxicity to tester assessed by transparency index T from plate image. As to conditions: for transparency index T: TA1537, no metabolic activation, average of three assessment plates, FIG. 14, T smaller than 1 means high transparency (cells dead).

The values that follow come from patent US20250231108A1, “TR[…]” (SUMITOMO CHEMICAL COMPANY, LIMITED, priority 2022, published 2025).

Protocol: A tester (bacterium having amino acid-requiring mutation, for example, Salmonella typhimurium: a TA100 strain, a TA98 strain, a TA1535 strain, or a TA1537 strain, Escherichia coli: a WP2uvrA strain or the like) that is used is inoculated in 60 mL of Nutrient broth medium, and is shaken and cultured at 37° C. for 9 to 10 hours to be proliferated.
The test substance prepared in the step 2A is dissolved or suspended in an adequate medium, and the resultant solution is diluted by using the medium in staged to prepare concentration series of the test substance solution. In a case where the same test substance is assessed with six concentrations different from each other, six test substance solutions having concentrations different from each other are prepared.
The medium used in preparation of the test substance solution, the concentration series of the test substance solution, and the solution of the positive control compound (collectively referred to as “test substance solution or the like”) are put into individual wells of a 24-well plate (a plate having 24 wells) by 10 μL.
0.175 to 0.7 mL of the tester culture solution (typically at a concentration exceeding 1×10^9 cells/mL) and 6.83 to 6.3 mL of a medium (minimal medium in which a carbon source is added and which is deficient in amino acid) are mixed. The resultant mixture is referred to as a preparation bacterial solution under conditions of the absence of metabolic activation. […]
Specifically, first, an angle θ1 between the centroid vector V1 and the first reference vector V2 and an angle θ2 between the centroid vector V1 and the second reference vector V3 are compared. In a case where the angle θ1 is equal to or smaller than the angle θ2, a transparency index T is calculated based on an expression (1). In a case where the angle θ2 is larger than the angle θ1, the transparency index T is calculated based on an expression (2). […]

On to `ClCc1ccc(Cl)cc1` [4-chlorobenzyl chloride], for which the “toxicity to the tester (cells)” value (TA1537, 1.95-2,000 μg/mL in DMSO, no metabolic activation, conclusion from transparency index T) is listed as “toxic to the tester”. Also, the “transparency index T” value (section Se6, test substance 500 μg/mL) is on record as “reduced” and the “transparency index T” value (section Se7, test substance 2,000 μg/mL) is listed as “reduced”.
